Data as given in US4009264A, “Complexes of polysaccharides or derivatives thereof with reduced glutathione and process for preparing said complexes” (Meito Sangyo Kabushiki Kaisha, priority 1975, dated 1977).
Each block holds one molecule with its values, some of them ahead of it.

How the values were obtained:
[1] = Auto-oxidation of other SH-containing compounds in the presence and absence of the complex (amperometric silver titration); format: physicochemical; settings: 37° C.
Procedure: In these Figures, the axis of abscissa represents the incubating time in minutes, and the axis of ordinates, the SH redidual ratio (%) of the above compounds.
The above residual ratio is measured after dissolving the sample in a sodium phosphate buffer (0.1 m, pH 8.0) in the presence of copper sulfate (5 × 10^-^7 m), and incubating at 37° C. The SH content is measured by an amperometric silver titration.

[2] = test system: damage of liver induced by D-galactosamine hydrochloride; test: Prophylactic activity on damage of liver induced by D-galactosamine hydrochloride; format: in vivo, Wister female rats; settings: administered beforehand; summary of Table 1
Procedure: The damage of liver was induced by administering D-galactosamine hydrochloride.
Wister female rats weighing 100 to 120 g (10 in a group) which had been fasted for 2 hours were used. Three groups were prepared. […] Still another group was administered only with 1 ml. of an isotonic sodium chloride solution. One hour after the administration, a solution obtained by dissolving 50 mg of D-glactosamine hydrochloride in 1 ml. of an isotonic sodium chloride solution and adjusting the pH of the solution to 7.0 with 0.1N sodium hydroxide was administered intraperitoneally.
After a lapse of 22 hours from the administration of D-galactosamine hydrochloride, blood was extracted from the abdominal aorta. GOT, GPT, bilirubin, and glucose in the plasma were measured. Furthermore, the liver was cut out, and its lipid and neutral fat were measured.

[3] = Stability of the thiol group to auto-oxidation: residual ratio of the active SH group (residual activity); format: physicochemical; settings: 40° C.
Procedure: The residual ratio of the active SH group, or simply called the residual activity, as used in this application is determined as follows:
The complex of this invention and other SH-containing compounds are incubated at a certain termperature in a sodium phosphate buffer (0.1 M, pH 8.0). Aliquotes are withdrawn at intervals and immediately the active SH group contents of the samples are determined. The maximum content obtained is made 100 (%), and the active SH group content of each of the samples is expressed in percentage based on this maximum content.

[4] = literature report; cited from earlier work

SH residual ratio of cysteamine alone ([1]; 60 minutes, sodium phosphate buffer pH 8.0, copper sulfate 5 × 10^-7 M): zero
Molecule: NCCS [cysteamine]

SH residual ratio of penicillamine alone ([1]; 60 minutes, pH 8.0, copper sulfate 5 × 10^-7 M): about 15%
Molecule: CC(C)(S)[C@@H](N)C(=O)O [penicillamine]

SH residual ratio of reduced glutathione alone ([1]; 180 minutes, final concentration 1 × 10^-3 M, pH 8.0, copper sulfate 5 × 10^-7 M): about 20%
residual ratio of the active SH group (residual activity of the reduced glutathione) ([3]; after 6 hours, sodium phosphate buffer 0.1 M pH 8.0, FeCl3 1.2 × 10^-5 M): about 40%
residual ratio of the active SH group ([3]; after 8 hours, sodium phosphate buffer 0.1 M pH 8.0): about 20%
Molecule: N[C@@H](CCC(=O)N[C@@H](CS)C(=O)NCC(=O)O)C(=O)O [reduced glutathione]
inhibition of the D-galactosamine-induced increase (GOT, GPT, bilirubin, liver lipid, neutral fat) or decrease (glucose) [2]: inhibited

Molecule: complex of dextran and insulin: literature complex of activated dextran and insulin (Acta Chem. Scand. 25, 1855-1859, 1971)
activity relative to the free insulin [4]: 1/36
